Measured values reported in US20150284331A1 (priority 2012, published 2015).
Changes are numbered by the printed parent chain. Like-named read-outs stand apart in the source and are kept apart here.

Key:
acetylcholinesterase = target: T1, acetylcholinesterase (Rattus norvegicus, UniProt P37136); test: biochemical; assay type: biochemical; details: rat cortex enzyme
T1 construct: Acetylcholinesterase: rat cortex; from tissue; host or cells: rat cortex
T1 sequence (P37136 32-614): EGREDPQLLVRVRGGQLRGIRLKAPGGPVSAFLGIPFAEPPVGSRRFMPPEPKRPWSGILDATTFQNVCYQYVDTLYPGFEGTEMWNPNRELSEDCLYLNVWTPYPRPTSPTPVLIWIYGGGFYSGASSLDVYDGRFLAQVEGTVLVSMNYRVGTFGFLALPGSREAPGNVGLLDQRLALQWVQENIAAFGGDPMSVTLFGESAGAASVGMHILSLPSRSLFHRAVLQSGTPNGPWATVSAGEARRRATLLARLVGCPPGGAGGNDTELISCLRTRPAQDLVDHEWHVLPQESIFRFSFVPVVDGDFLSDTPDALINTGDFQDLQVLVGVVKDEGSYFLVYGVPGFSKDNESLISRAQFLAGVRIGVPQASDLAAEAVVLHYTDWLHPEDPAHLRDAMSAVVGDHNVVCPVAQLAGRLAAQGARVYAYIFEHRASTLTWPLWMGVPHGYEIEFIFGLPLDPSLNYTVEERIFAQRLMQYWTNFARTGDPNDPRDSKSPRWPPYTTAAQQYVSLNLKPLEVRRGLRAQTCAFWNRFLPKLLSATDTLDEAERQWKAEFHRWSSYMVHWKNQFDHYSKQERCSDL
Protocol: (§1) Sample processing: All samples were formulated as 10-2 mol/L solution by using 100% DMSO. 10-2 mol/L solution was used in microdetermination. 1 μL was taken to use in single tube experiment.
(§2) Solvent control: 0.4% DMSO was used in microdetermination. The inhibition ratio of the sample was obtained wherein the effect of solvent was deducted.
Acetylcholinesterase: rat cortex

butyrylcholinesterase = target: T2, butyrylcholinesterase (Rattus norvegicus, UniProt Q9JKC1); test: inhibition of butyrylcholinesterase (rat serum); assay type: biochemical; details: rat serum enzyme; final concentration 4×10−5 mol/L
T2 construct: Butyrylcholinesterase: rat serum; from tissue; host or cells: rat serum
T2 sequence (Q9JKC1 24-597): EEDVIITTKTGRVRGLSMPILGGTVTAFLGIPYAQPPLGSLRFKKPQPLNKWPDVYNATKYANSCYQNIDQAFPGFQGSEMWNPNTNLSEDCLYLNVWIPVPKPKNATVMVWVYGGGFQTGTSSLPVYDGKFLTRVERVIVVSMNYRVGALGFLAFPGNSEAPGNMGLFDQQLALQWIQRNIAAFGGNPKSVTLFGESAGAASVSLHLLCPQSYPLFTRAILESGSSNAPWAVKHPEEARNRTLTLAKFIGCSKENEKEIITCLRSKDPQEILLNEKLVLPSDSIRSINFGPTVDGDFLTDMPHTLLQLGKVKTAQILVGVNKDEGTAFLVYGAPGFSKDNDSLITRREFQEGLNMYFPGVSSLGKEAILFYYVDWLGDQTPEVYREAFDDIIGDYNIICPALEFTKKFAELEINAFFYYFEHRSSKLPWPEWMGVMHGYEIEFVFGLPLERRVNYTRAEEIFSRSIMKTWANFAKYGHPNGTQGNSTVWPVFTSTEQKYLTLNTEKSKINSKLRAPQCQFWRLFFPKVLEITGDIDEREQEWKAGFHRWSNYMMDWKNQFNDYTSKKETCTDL
Protocol: as §1, §2
Butyrylcholinesterase: rat serum

KM mice = test: acute toxicities of compounds on mice; assay type: in vivo; details: 100 mg/kg oral
Protocol: Sample processing: When getting samples, they were undissolved. […] The samples were suspensions. Experimental animals: KM mice, 22-29 g, half male and half female.
Experimental method: Mice were randomly divided into groups. 100 mg/kg of test compounds DC19 and DC20 were administered orally, respectively.

[1] = target: T3, cortex and hippocampus acetylcholinesterase of mice (Mus musculus, UniProt P21836); assay type: in vivo; details: for Acetylcholinesterase activity (%) cortex / Acetylcholinesterase activity (%) hippocampus: 1 h, % of solvent control, Mean ± SEM
T3 construct: from tissue; host or cells: mouse cortex and hippocampus homogenate
T3 sequence (P21836 32-614): T1 sequence (P37136 32-614) with I59V, T109A, S128A, T144A, S271A, D313E, A392T, V467T, Q478K, R499Q
Protocol: 5% DMSO was added and shaken sufficiently to dissolve the samples. Then 1% cosolvent EL (polyoxyethylated castor oil) was added and water was used to make up the remaining volumn to obtain 10 mg/mL sample. The samples were diluted gradually to 0.3 mg/mL, 1 mg/mL and 3 mg/mL. […] The samples were administrated orally according to 0.1˜mL/10 g of volumn to weight ratio. An equal amount of 5% DMSO and 1% EL solution was administered orally to the solvent control group.
(1) Acetylcholinesterase: mouse cortex and hippocampus. 1 h after orally administrated, the mice were decapitated. After the brains were taken out, the hippocampus and cortex were quickly stripped on the ice. To the cortex was added ice-cold 75 mM PBS, and homogenated to form 30× tissue homogenate and to the hippocampus was added ice-cold 75 mM PBS and homogenated to form 40× tissue homogenate. And finally 1/10 by volumn of OMPA was added and placed on the ice to be tested.
(2) Test Method: To the samples were added a reaction system containing PBS, H2O, S-Ach and DTNB. Except for the blank tube, to the rest of the tubes were added an appropriate amount of enzyme. The reaction was carried out at room temperature for 20 minutes. SDS was added to each tube to quench the reaction. An appropriate amount of enzyme was added to the blank tube. Absorbance of each tube was determined by UV-visible spectrophotometer (OD440 nm).

SMILES: COc1cc2c(cc1OC)C(=O)C(CC1(F)CCN(Cc3ccccc3F)CC1)C2 (stereo not shown) [DC20, 2-((4-fluoro-1-(2-fluorobenzyl)piperidin-4-yl)methyl)-5,6-dimethoxy-2,3-dihydro-1H-inden-1-one]
- acetylcholinesterase inhibitory activity inhibition ratio (%) (acetylcholinesterase; final concentration 4×10−5 mol/L): 82.04%
- IC50 (acetylcholinesterase; read-out: acetylcholinesterase inhibitory activity IC50 (nmol)): 860 pM
- butyrylcholinesterase inhibitory activity inhibition ratio (%) (butyrylcholinesterase): 71.58%
- response symptoms (KM mice; female KM mouse): 8 min, myasthenia, lacrimal
- response symptoms (KM mice; male KM mouse): 6 min, myasthenia, reduction in
- time of death after administration (KM mice; male KM mouse): secretion, immobility; 24 h,
- inhibition of cortex acetylcholinesterase compared with the solvent control group ([1]; 0.3 mg/kg oral): 14.67%
- inhibition of hippocampus acetylcholinesterase compared with the solvent control group ([1]; 0.3 mg/kg oral): 15.47%
- Acetylcholinesterase activity (%) cortex ([1]; 0.3 mg/kg oral): 85.33%
- Acetylcholinesterase activity (%) hippocampus ([1]; 0.3 mg/kg oral): 84.53%
- inhibition effects on mouse cortex and hippocampus AChE compared with Donepezil ([1]; 1 mg/kg of DC20 versus 10 mg/kg Donepezil): comparable to those of 10 mg/kg of positive control drug Donepezil
- inhibition of cortex acetylcholinesterase compared with the solvent control group ([1]; 1 mg/kg oral): 22.02%
- inhibition of hippocampus acetylcholinesterase compared with the solvent control group ([1]; 1 mg/kg oral): 19.76%
- Acetylcholinesterase activity (%) cortex ([1]; 1 mg/kg oral): 77.98%
- Acetylcholinesterase activity (%) hippocampus ([1]; 1 mg/kg oral): 80.24%
- inhibition effects on mouse cortex and hippocampus acetylcholinesterase (in words) ([1]; 1 mg/kg, 3 mg/kg and 10 mg/kg oral): significant inhibition effects
- inhibition of cortex acetylcholinesterase compared with the solvent control group ([1]; 3 mg/kg oral): 42.95%
- inhibition of hippocampus acetylcholinesterase compared with the solvent control group ([1]; 3 mg/kg oral): 50.12%
- Acetylcholinesterase activity (%) cortex ([1]; 3 mg/kg oral): 57.05%
- Acetylcholinesterase activity (%) hippocampus ([1]; 3 mg/kg oral): 49.88%
- inhibition of cortex acetylcholinesterase compared with the solvent control group ([1]; 10 mg/kg oral): 66.02%
- inhibition of hippocampus acetylcholinesterase compared with the solvent control group ([1]; 10 mg/kg oral): 65.62%
- Acetylcholinesterase activity (%) cortex ([1]; 10 mg/kg oral): 33.98%
- Acetylcholinesterase activity (%) hippocampus ([1]; 10 mg/kg oral): 34.38%
- overall activity compared with Donepezil ([1]; mouse cortex and hippocampus AChE, oral): better than that of Donepezil
